Experimental data reported in patent US20260337153A1, “IONIZABLE AMINE LIPIDS” (Intellia Therapeutics, Inc., priority 2023, published 2026).
Several values for one entry are separate records, joined by “and”; a condition that tells them apart may be missing. Equal entries are not always repeated.

Assays:
[1] = tested on: rat TTR; assay: Serum TTR level after LNP delivery (Rat Prealbumin (Transthyretin) ELISA); type: in vivo, rat (Sprague-Dawley); details: LNP with PEG2K-DMG
Experimental: Sprague-Dawley female rats, ranging from 6-10 weeks of age were used in each study. Animals were weighed and dosed based on individual body weight measured the morning of dosing. LNPs were dosed via the lateral tail vein in a volume of 2 mL per kilogram of animal body weight. The animals were periodically observed for adverse effects for at least 24 hours post dose.
For studies measuring in vivo editing in liver, Sprague-Dawley female rats were dosed at 0.1 mpk or 0.03 mpk, unless otherwise noted. Animals were euthanized at 6 or 7 days by carbon dioxide asphyxiation and a heart clip or by ex sanguination via cardiac puncture under isoflourane anesthesia. Blood was collected into serum separator tubes. Liver tissue was collected. Genomic DNA was isolated from the liver tissue for editing measurement by Next-Generation Sequencing (NGS).
Blood was collected and the serum was isolated as indicated. The total rat TTR serum levels were determined using a Rat Prealbumin (Transthyretin) ELISA Kit (Aviva Systems Biology, Cat. #OKIA00159). Briefly, sera were serial diluted with kit sample diluent to a final dilution of 10,000-fold. This diluted sample was then added to the ELISA plates and the assay was then carried out according to manufacturer's protocol.
In vivo editing efficiency for materials delivered with formulations including various amine lipid (or ionizable lipid) compounds in Experiments 1 through 14 as described in Tables 3 and 4 was assessed. Editing was measured using G000534 (SEQ ID NO: 5) which targets the rat TTR gene. Lipids described above were assessed for efficacy through in vivo editing experiments. LNPs were formulated at a 1:2 w/w ratio of sgRNA (SEQ ID NO: 5) and Cas9 mRNA (SEQ ID NO: 3). In Experiments 1 through 13, lipid components of the LNP are formulated in a molar ratio of 50% ionizable lipid, 38% cholesterol, 9% DSPC, and 3% PEG2K-DMG. In Experiment 14, lipid components of the LNP are formulated in a molar ratio of 50% ionizable lipid, 38% cholesterol, 9% DSPC, and 3% C13 Ether. The final LNPs used in different in vivo editing experiments were characterized to determine the encapsulation efficiency (% E), polydispersity index (PDI), and average particle size (Z-avg and number mean) according to the analytical methods provided above. The pKa values of each of the following ionizable lipids were also measured to be in the range of about 5.8 to about 7.6.
TSS was used as a vehicle-only negative control. The data are illustrated in FIGS. 1A through 14.

[2] = LNP average particle size and polydispersity by dynamic light scattering; type: physicochemical; details: sgRNA:mRNA 1:2
Procedure, shortened: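 Z-average (intensity-based) and number-mean diameters plus PDI measured by DLS on LNP samples diluted in PBS. LNPs carried sgRNA and Cas9 mRNA at 1:2 w/w, with lipids at 50% ionizable lipid, 38% cholesterol, 9% DSPC and 3% PEG lipid (PEG2K-DMG, C13 Ether or C14 Ether).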

[3] = Table 3, Experiments 1-13, LNP 50% ionizable lipid, 38% cholesterol, 9% DSPC, 3% PEG2K-DMG
[4] = LNP with 50% ionizable lipid, 38% cholesterol, 9% DSPC, 3% C13 Ether (LNP #1, Compound 53: 3% PEG2K-DMG instead)

| Number mean [2, 3] | PDI [2, 3] | Z-avg [2, 3] | SMILES | % TSS (serum TTR relative to vehicle) ([1]; Experiment 5, 0.1 mpk) [%] | Serum TTR ([1]; Experiment 5, 0.1 mpk) [µg/mL] | % TSS (serum TTR relative to vehicle) ([1]; Experiment 1, 0.1 mpk) [%] | Serum TTR ([1]; Experiment 1, 0.1 mpk) [µg/mL] | % TSS (serum TTR relative to vehicle) ([1]; Experiment 2, 0.1 mpk) [%] | Serum TTR ([1]; Experiment 2, 0.1 mpk) [µg/mL] | other results |
| --- | --- | --- | --- | --- | --- | --- | --- | --- | --- | --- |
| 76 nm | 0.01 | 81 nm | CCCCC/C=C\C/C=C\CCCCCCCC(=O)OCC(CCCCCCCCC(=O)OC(CCCCCCCC)CCCCCCCCC)COC(=O)CCC(CCCC)OC(=O)NCCN(C)CC (stereo not shown) [Compound 26, 9-butyl-3-methyl-15-(9-(octadecan-9-yloxy)-9-oxononyl)-7,12-dioxo-8,13-dioxa-3,6-diazahexadecan-16-yl (9Z,12Z)-octadeca-9,12-dienoate] | 35 | 502.9 |  |  |  |  |  |
| 77 nm | 0.01 | 82 nm | CCCCC/C=C\C/C=C\CCCCCCCC(=O)OCC(CCCCCCCCC(=O)OC(CCCCCCCC)CCCCCCCCC)COC(=O)CCC(CCCC)OC(=O)NCCN1CCCC1 (stereo not shown) [Compound 27, 11-(octadecan-9-yloxy)-11-oxo-2-(((4-(((2-(pyrrolidin-1-yl)ethyl)carbamoyl)oxy)octanoyl)oxy)methyl)undecyl (9Z,12Z)-octadeca-9,12-dienoate] | 21 | 294.3 |  |  |  |  |  |
| 74 nm and 80 nm | 0.04 and 0.03 | 90 nm and 86 nm | CCCCC/C=C\C/C=C\CCCCCCCC(=O)OCC(COC(=O)CCCC(=O)OC(CCCCCCCC)CCCCCCCC)COC(=O)OCCCN(CC)CC (stereo not shown) [Compound 56] |  |  |  |  | 28 | 390.1 |  |
| 83 nm and 78 nm | 0.01 and 0.02 | 100 nm and 95 nm | CCCCC/C=C\C/C=C\CCCCCCCC(=O)OCC(COC(=O)CCCCCC(=O)OC(CCCCCCCC)CCCCCCCC)COC(=O)NCCN(CC)CC (stereo not shown) [Compound 59] |  |  | 50 | 533.0 | 20 | 276.6 |  |
| 64 nm | 0.03 | 72 nm | CCCCC/C=C\C/C=C\CCCCCCCC(=O)OCC(CCCCCCCCC(=O)OC(CCCCCCCC)CCCCCCCCC)COC(=O)CCC(CCCCCCCC)OC(=O)NCCN1CCCC1 (stereo not shown) [Compound 25, 11-(octadecan-9-yloxy)-11-oxo-2-(((4-(((2-(pyrrolidin-1-yl)ethyl)carbamoyl)oxy)dodecanoyl)oxy)methyl)undecyl (9Z,12Z)-octadeca-9,12-dienoate] | 70 | 998.3 |  |  |  |  |  |
| 72 nm | 0.004 | 86 nm | CCCCCCCCC(CCCCCCCC)OC(=O)CCCCCC(=O)OCC(COC(=O)CCCCCC(=O)OC(CCCCCCCC)CCCCCCCC)COC(=O)OCCCN(CC)CC [Compound 3, O′1,O1-(2-((((3-(diethylamino)propoxy)carbonyl)oxy)methyl)propane-1,3-diyl) 7,7′-di(heptadecan-9-yl) di(heptanedioate)] |  |  |  |  | 30 | 414.5 |  |
| 69 nm and 84 nm and 77 nm |  | 91 nm and 92 nm and 94 nm | CCCCC/C=C\C/C=C\CCCCCCCC(=O)OCC(COC(=O)CCCC(=O)OC(CCCCCCCC)CCCCCCCC)COC(=O)NCCN(CC)CC (stereo not shown) [Compound 58] |  |  | 38 | 406.3 | 14 | 198.8 |  |
| 75 nm and 80 nm |  | 91 nm and 88 nm | CCCCC/C=C\C/C=C\CCCCCCCC(=O)OCC(COC(=O)CCCCCC(=O)OC(CCCCCCCC)CCCCCCCC)COC(=O)OCCCN(CC)CC (stereo not shown) [Compound 57] |  |  |  |  | 30 | 412.3 |  |
| 90 nm | 0.01 | 109 nm | CCCCCCC(CCCC)COC(=O)CCCCCC(=O)OCC(COC(=O)CCCCCC(=O)OCC(CCCC)CCCCCC)COC(=O)OCCCN(CC)CC (stereo not shown) [Compound 5, 7,7′-bis(2-butyloctyl) O′1,O1-(2-((((3-(diethylamino)propoxy)carbonyl)oxy)methyl)propane-1,3-diyl) di(heptanedioate)] |  |  |  |  | 25 | 346.5 |  |
| 78 nm and 83 nm | 0.02 and 0.04 | 95 nm and 91 nm | CCCCC/C=C\C/C=C\CCCCCCCC(=O)OCC(COC(=O)CCCCCC(=O)OCC(CCCC)CCCCCC)COC(=O)OCCCN(CC)CC (stereo not shown) [Compound 4, 1-(2-butyloctyl) 7-(3-(((3-(diethylamino)propoxy)carbonyl)oxy)-2-((((9Z,12Z)-octadeca-9,12-dienoyl)oxy)methyl)propyl) heptanedioate] |  |  |  |  | 46 | 647.4 |  |
| 80 nm | 0.003 | 98 nm | CCCCC/C=C\C/C=C\CCCCCCCC(=O)OCC(COC(=O)CCC(OCCCCCCCC)OCCCCCCCC)COC(=O)NCCN(CC)CC (stereo not shown) [Compound 54] |  |  | 48 | 512.9 |  |  |  |

| SMILES | Number mean [2, 3] | PDI [2, 3] | Z-avg [2, 3] | % TSS (serum TTR relative to vehicle) ([1]; Experiment 5, 0.1 mpk) [%] | Serum TTR ([1]; Experiment 5, 0.1 mpk) [µg/mL] | % TSS (serum TTR relative to vehicle) ([1]; Experiment 1, 0.1 mpk) [%] | Serum TTR ([1]; Experiment 1, 0.1 mpk) [µg/mL] | % TSS (serum TTR relative to vehicle) ([1]; Experiment 2, 0.1 mpk) [%] | Serum TTR ([1]; Experiment 2, 0.1 mpk) [µg/mL] | other results |
| --- | --- | --- | --- | --- | --- | --- | --- | --- | --- | --- |
| CCCCC/C=C\C/C=C\CCCCCCCC(=O)OCC(COC(=O)CCC(OCCCCCCCC)OCCCCCCCC)COC(=O)OCCCN(CC)CC (stereo not shown) [Compound 53] |  |  | 94 nm and 89 nm and 96 nm and 92 nm and 90 nm and 91 nm and 95 nm | 44 | 624.1 | 48 | 519.9 | 24 | 341.9 | Number mean (average particle size) [2, 4]: 71 nm; PDI (polydispersity index) [2, 4]: 0.04; Z-avg (average particle size) [2, 4]: 87 nm; Number mean ([2]; Table 5, PEG lipid C13 Ether): 80 nm; PDI ([2]; Table 5, PEG lipid C13 Ether): 0.02; Z-avg ([2]; Table 5, PEG lipid C13 Ether): 87 nm; Number mean ([2]; Table 5, PEG lipid C14 Ether): 90 nm; PDI ([2]; Table 5, PEG lipid C14 Ether): 0.01; Z-avg ([2]; Table 5, PEG lipid C14 Ether): 96 nm; Number mean ([2]; Table 5, PEG lipid PEG2K-DMG): 82 nm; PDI ([2]; Table 5, PEG lipid PEG2K-DMG): 0.01; Z-avg ([2]; Table 5, PEG lipid PEG2K-DMG): 87 nm |
